Tests used:
[1] = target: Dihydroorotate dehydrogenase (quinone), mitochondrial (Homo sapiens, UniProt Q02127); experiment: Inhibition of N-terminal His10-tagged human DHODH (Met30 to Arg396) expressed in Escherichia coli BL21 (DE3) using dihydroorotate as substrate measured every 30 secs for 6 mins by DCIP dye-based assay
[2] = target: T1, Dihydroorotate dehydrogenase (quinone), mitochondrial (Plasmodium falciparum, UniProt Q54A96); experiment: Inhibition of Plasmodium falciparum DHODH (Phe158 to Ser569) expressed in Escherichia coli BL21 using dihydroorotate as substrate measured every 30 secs for 6 mins by DCIP dye-based assay
T1 sequence (Q54A96 whole entry): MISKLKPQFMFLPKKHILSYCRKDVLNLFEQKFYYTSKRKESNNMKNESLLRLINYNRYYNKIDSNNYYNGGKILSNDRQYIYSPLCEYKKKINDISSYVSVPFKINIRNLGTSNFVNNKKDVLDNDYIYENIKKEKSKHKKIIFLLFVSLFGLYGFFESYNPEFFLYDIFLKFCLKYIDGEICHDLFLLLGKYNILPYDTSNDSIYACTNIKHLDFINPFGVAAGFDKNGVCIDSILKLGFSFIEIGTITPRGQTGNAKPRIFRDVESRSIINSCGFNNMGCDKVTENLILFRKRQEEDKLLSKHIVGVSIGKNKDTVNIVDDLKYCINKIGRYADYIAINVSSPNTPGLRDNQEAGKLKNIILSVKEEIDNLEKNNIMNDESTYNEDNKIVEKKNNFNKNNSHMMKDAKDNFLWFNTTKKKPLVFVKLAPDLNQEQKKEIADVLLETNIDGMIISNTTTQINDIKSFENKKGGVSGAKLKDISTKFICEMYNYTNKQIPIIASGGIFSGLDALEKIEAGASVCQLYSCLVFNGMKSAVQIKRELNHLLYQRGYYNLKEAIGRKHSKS

Dihydroorotate dehydrogenase (quinone), mitochondrial (Homo sapiens, UniProt Q02127), sequence (Q02127 whole entry): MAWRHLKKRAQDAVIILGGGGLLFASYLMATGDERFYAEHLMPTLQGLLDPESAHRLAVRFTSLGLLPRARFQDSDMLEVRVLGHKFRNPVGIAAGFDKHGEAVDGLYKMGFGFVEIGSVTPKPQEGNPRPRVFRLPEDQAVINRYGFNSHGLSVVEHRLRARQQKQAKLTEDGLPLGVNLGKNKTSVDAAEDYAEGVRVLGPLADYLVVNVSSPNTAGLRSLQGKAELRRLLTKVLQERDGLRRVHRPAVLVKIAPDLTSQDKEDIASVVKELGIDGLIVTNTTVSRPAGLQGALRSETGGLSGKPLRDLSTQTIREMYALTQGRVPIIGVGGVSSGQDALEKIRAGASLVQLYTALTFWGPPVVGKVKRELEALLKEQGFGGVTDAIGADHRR

SMILES | IC50 [1] | IC50 [2]
Cc1ccc(Nc2scc(O)c2C(=O)O)cc1C | > 50 µM | > 50 µM
CCOC(=O)c1c(O)csc1Nc1ccc(Br)cc1C | > 50 µM | > 50 µM
CCOC(=O)c1c(O)csc1Nc1cccc(C(F)(F)F)c1 | > 50 µM | > 50 µM
CCCCNC(=O)c1c(O)csc1Nc1ccc2ccccc2c1 | > 50 µM | > 50 µM
CCOC(=O)c1c(O)csc1Nc1ccccc1 | > 50 µM | > 50 µM
CCCNC(=O)c1c(O)csc1Nc1ccc2ccccc2c1 | > 50 µM | > 50 µM
Cc1ccc(Nc2scc(O)c2C(N)=O)cc1C | > 50 µM | > 50 µM
O=C(NCC1CC1)c1c(O)csc1Nc1ccc2ccccc2c1 | > 50 µM | > 50 µM

Reference: BindingDB's records for doi:10.1021/jm400938g (State Key Laboratory of Bioreactor Engineering, 2013)
